In patent US7008636B2, “2,3,5-substituted biphenyls useful in the treatment of insulin resistance and hyperglycemia” (Wyeth, priority 1998, dated 2006) one finds IC50 data, which are given here for 25 compounds.

Structures can show the parent of a compound that is named as a salt.

The term IC50 denotes the concentration at which inhibition is half-maximal.

In the assay the target is T1, recombinant, human protein tyrosine phosphatase (PTP) 1B (hPTP1B) (Homo sapiens, UniProt P18031).
T1 construct: made in house
T1 sequence (P18031 1-435): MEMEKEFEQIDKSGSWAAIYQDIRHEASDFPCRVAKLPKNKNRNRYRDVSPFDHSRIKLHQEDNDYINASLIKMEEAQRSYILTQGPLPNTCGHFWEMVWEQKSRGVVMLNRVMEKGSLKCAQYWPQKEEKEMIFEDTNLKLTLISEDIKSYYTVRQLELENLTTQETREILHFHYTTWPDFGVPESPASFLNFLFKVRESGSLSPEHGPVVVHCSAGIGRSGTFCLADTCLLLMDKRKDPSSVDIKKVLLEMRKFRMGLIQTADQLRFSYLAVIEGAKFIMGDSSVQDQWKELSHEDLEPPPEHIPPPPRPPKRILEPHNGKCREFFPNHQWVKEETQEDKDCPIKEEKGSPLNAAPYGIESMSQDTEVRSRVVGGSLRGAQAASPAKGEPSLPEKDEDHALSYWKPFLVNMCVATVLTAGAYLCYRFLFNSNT
As to the kind of experiment: Inhibition of tri-phosphorylated insulin receptor dodecaphosphopeptide dephosphorylation by hPTP1B. The conditions noted are these: 50 μM IR triphosphopeptide substrate, 5 min preincubation and 5 min reaction at 37° C., malachite green-ammonium molybdate phosphate detection. It is filed as biochemical.
`CCCCCCCCCCCCNC(=O)c1cc(-c2cccc(Cl)c2)c(OCC(=O)O)c(-c2cccc(Cl)c2)c1` [Example 1, (3,3″-Dichloro-5′-dodecylcarbamoyl-[1,1′;3′,1″]terphenyl-2′-yloxy)-acetic acid]: the IC50 came to 63 nM.
Consider `CCCCCCCCCCCCNC(=O)c1cc(Br)c(OCC(=O)O)c(-c2cccc(Cl)c2)c1` [Example 2, (3-Bromo-3′-chloro-5-dodecylcarbamoyl-biphenyl-2-yloxy)acetic acid], for which the IC50 was 183 nM.
In the case of `O=C(O)COc1c(-c2cccc(Cl)c2)cc(C(=O)NCCCCCCCCc2ccccc2)cc1-c1cccc(Cl)c1` [Example 3, [3,3″-Dichloro-5′-(8-phenyl-octylcarbamoyl)-[1,1′;3′,1″]terphenyl-2′-yloxy]-acetic acid] it was 111 nM; in that of `CCCCCCCCCCCCNC(=O)c1cc(-c2cccc(Cl)c2)c(OCCOCC(=O)O)c(-c2cccc(Cl)c2)c1` [Example 12], 15 nM.
In the case of `CCCCCCCCCCCCNC(=O)c1cc(-c2ccc(F)c(Cl)c2)c(OCC(=O)O)c(-c2ccc(F)c(Cl)c2)c1` [Example 24, (3,3″-Dichloro-5′-dodecylcarbamoyl-4,4″-difluoro[1,1′;3′,1″]terphenyl(-2′-yloxy)-acetic acid sodium salt] it was 44 nM.
In the case of `O=C(O)COc1c(-c2ccc(F)c(Cl)c2)cc(C(=O)NCCCCCCCCc2ccccc2)cc1-c1ccc(F)c(Cl)c1` [Example 25, [3,3″-Dichloro-4-4″difluoro-5′-(8-phenyl-octylcarbamoyl)[-1,1′;3′,1″]terphenyl-2′-yloxy]-acetic acid] it was 123 nM; in that of `CCCCCCCCCCCCNC(=O)c1cc(Br)c(OCC(=O)O)c(-c2ccc(OC)cc2)c1` [Example 31, (3-Bromo-5-dodecylcarbamoyl-4′-methoxy-biphenyl-2-yloxy)-acetic acid], 203 nM; in that of `CCCCCCCCOc1cc(-c2cccc(OC)c2)c(OCC(=O)O)c(-c2cccc(OC)c2)c1` [Example 50, (3,3″-Dimethoxy-5′-octyloxy-[1,1′;3′,1″]terphenyl-2′-yloxy)acetic acid], 254 nM.
For `O=C(O)COc1c(-c2cccc(C(F)(F)F)c2)cc(C(=O)NCCCCCCCCc2ccccc2)cc1-c1ccccc1F` [Example 108, [2″-Fluoro-5′-(8-phenyl-octylcarbamoyl)-3-trifluoromethyl-[1,1′;3′,1″]terphenyl-2′-yloxy)-acetic acid], the IC50 was 450 nM.
In the case of `CCCCCCCCCCCCNC(=O)c1cc(-c2cccc(C(F)(F)F)c2)c(OCC(=O)O)c(-c2ccccc2F)c1` [Example 109, (5′-Dodecylcarbamoyl-2″-fluoro-3-trifluoromethyl-[1,1′;3′,1″]terphenyl-2′-yloxy)-acetic acid] it was 187 nM.
In the case of `CCCCCCCCCCCCNC(=O)c1cc(-c2ccccc2F)c(OCC(=O)O)c(-c2ccccc2F)c1` [Example 110, (5′-Dodecylcarbamoyl-2,2″-difluoro-[1,1′;3′,1″]terphenyl-2′-yloxy)-acetic acid] it was 300 nM.
For `O=C(O)COc1c(-c2ccccc2F)cc(C(=O)NCCCCCCCCc2ccccc2)cc1-c1ccccc1F` [Example 111, [2,2″-Difluoro-5′-(8-phenyl-octylcarbamoyl)-[1,1′;3′,1″]terphenyl-2′-yloxy)-acetic acid], the IC50 came to 700 nM.
In the case of `CCCCCCCCCCCCNC(=O)c1cc(-c2cccc(Cl)c2)c(OCC(=O)O)c(-c2ccccc2F)c1` [Example 114, (3″-Chloro-5′-dodecylcarbamoyl-2-fluoro-[1,1′;3′,1″]terphenyl-2′-yloxy)-acetic acid] it was 55 nM; in that of `O=C(O)COc1c(-c2cccc(Cl)c2)cc(C(=O)NCCCCCCCCc2ccccc2)cc1-c1ccccc1F` [Example 115, [3″-Chloro-2-fluoro-5′-(8-phenyl-octylcarbamoyl)-[1,1′;3′,1″]terphenyl-2′-yloxy]-acetic acid], 287 nM; in that of `CN(CCCCCCCCc1ccccc1)C(=O)c1cc(-c2ccccc2F)c(OCC(=O)O)c(-c2ccccc2F)c1` [Example 118, {2,2″-Difluoro-5′-[methyl-(8-phenyl-octyl)-carbamoyl]-[1,1′;3′,1″]terphenyl-2′-yloxy}-acetic acid], 423 nM.
In the case of `O=C(O)COc1c(-c2cccc(Cl)c2)cc(C(=O)NCCCCCCCC[S+]([O-])c2ccc(Cl)cc2)cc1-c1cccc(Cl)c1` (stereo not shown) [Example 119, {3,3″-Dichloro-5′-[8-(4-chloro-benzenesulfinyl)-octylcarbamoyl]-[1,1′;3′,1″]terphenyl-2′-yloxy}-acetic acid], the IC50 worked out at 627 nM.
In the case of `O=C(O)COc1c(-c2cccc(Cl)c2)cc(C(=O)NCCCCCCCCOc2ccc(F)cc2F)cc1-c1cccc(Cl)c1` [Example 120, {3,3″-Dichloro-5′-[8-(2,4-difluoro-phenoxy)-octylcarbamoyl]-[1,1′;3′,1″]terphenyl-2′-yloxy}-acetic acid] it was 53 nM.
In the case of `O=C(O)COc1c(-c2cccc(Cl)c2)cc(C(=O)NCCCCCCCCCCCCOc2ccc(F)cc2F)cc1-c1cccc(Cl)c1` [Example 121, {3,3″-Dichloro-5′-[12-(2,4-difluoro-phenoxy)-dodecylcarbamoyl]-[1,1′;3′,1″]terphenyl-2′-yloxy}-acetic acid] it was 15 nM; in that of `O=C(O)COc1c(-c2cccc(Cl)c2)cc(C(=O)NCCCCCCCCOCc2ccc(C(F)(F)F)cc2)cc1-c1cccc(Cl)c1` [Example 122, {3,3″-Dichloro-5′-[8-(4-trifluoromethyl-benzyloxy)-octylcarbamoyl]-[1,1′;3′,1″]terphenyl-2′-yloxy}-acetic acid], 92 nM.
Turning to `O=C(O)COc1c(-c2cccc(Cl)c2)cc(C(=O)N(C2CCCCC2)C2CCCCC2)cc1-c1cccc(Cl)c1` [Example 124, (3,3″-Dichloro-5′-dicyclohexylcarbamoyl-[1,1′;3′,1″]terphenyl-2′-yloxy)-acetic acid], the IC50 was 595 nM.
In the case of `O=C(NCCCCCCCc1ccccc1)c1cc(-c2cccc(C(F)(F)F)c2)c(OCP(=O)(O)O)c(-c2cccc(C(F)(F)F)c2)c1` [Example 128, [5′-(7-Phenyl-heptylcarbamoyl)-3,3″-bis-trifluoromethyl-[1,1′:3′,1″]terphenyl-2′-yloxymethyl]-phosphonic acid] it was 264 nM.
With `O=C(NCCCCCCCc1ccccc1)c1cc(-c2cccc(C(F)(F)F)c2)c(OCc2ccc(S(=O)(=O)O)cc2)c(-c2cccc(C(F)(F)F)c2)c1` [Example 130, 4-[5′-(7-Phenyl-heptylcarbamoyl)-3,3″-bis-trifluoromethyl-[1,1′3′,1″]terphenyl-2′-yloxymethyl]-benzenesulfonic acid], the IC50 was found to be 56 nM.
In the case of `COc1ccc(-c2cc(-c3ccc(C(=O)NCCCCCCCc4ccccc4)cc3)cc(-c3ccc(OC)cc3)c2OCc2ccc(C(=O)O)cc2)cc1` [Example 133] it was 102 nM; in that of `O=C(O)c1ccc(COc2c(-c3cccc(C(F)(F)F)c3)cc(C(=O)NCCCCCCCc3ccccc3)cc2-c2cccc(C(F)(F)F)c2)cc1` [Example 134, 4-[5′-(7-Phenyl-heptylcarbamoyl)-3,3″-bis-trifluoromethyl-[1,1′:3′,1″]terphenyl-2′-yloxymethyl]-benzoic acid], 57 nM; in that of `CCCCCCCCCCCCNC(=O)c1cc(Br)c(OCC(=O)O)c(-c2ccc(F)c(Cl)c2)c1` [Example 135, (3-Bromo-3′-chloro-5-dodecylcarbamoyl-4′-fluoro-biphenyl-2-yloxy)acetic acid], 130 nM.
